Assay results reported in publication PMC2248166, “Quantitative peptide binding motifs for 19 human and mouse MHC class I molecules derived using positional scanning combinatorial peptide libraries” (Immunome Research, 2008).

Columns and labels:
HLA A*3001 = HLA A*3001 (Homo sapiens, UniProt P04439, D140H/D185E/E176W/F33S/G80R/H175R/K168Q/R138E/R41S); test: biochemical; assay type: binding
HLA A*3201 = HLA A*3201 (Homo sapiens, UniProt P04439, A270S/D101S/D185E/E176V/E277Q/F133L/G103R/G107R/G231S/H175R/I121M/I218V/I322F/K168Q/L105A/L300P/L318F/M331R/P208A/P217A/Q94H/R106L/R138Q/S129P/T104I/T323A/T345S/V100E/V321M/V358M); test: biochemical; assay type: binding
HLA A*6802 = HLA A*6802 (Homo sapiens, UniProt P04439, A269V/D140Y/D185E/E176V/E277Q/E87N/F33Y/G231S/I121R/I166T/I218V/L180W/L300P/L318F/N151K/P208A/P217A/Q86R/R138H/R169H/S129P/T345S/V36M); assay type: binding
HLA B*0702 = HLA B*0702 (Homo sapiens, UniProt P01889); assay type: binding; conditions: positional scanning combinatorial 9-mer library; normalized to 1.0 for the best residue at each position
HLA B*0801 = HLA B*0801 (Homo sapiens, UniProt P01889, A93T/A95T/D138N/E176V/E187T/K202T/Q94N/R180D/S35A/V36M/Y33D/Y91F); test: biochemical; assay type: binding
HLA B*1501 = HLA B*1501 (Homo sapiens, UniProt P01889, A329T/A93T/A95T/C349S/D201E/D98Y/E187L/E204Q/E69M/E70A/K202T/N87E/Q94N/R155S/R180W/S121R/S35A/S48A/V306I/V36M/Y140S/Y91S); test: biochemical; assay type: binding
HLA B*1503 = HLA B*1503 (Homo sapiens, UniProt P01889, A329T/A93T/A95T/C349S/D201E/D98Y/E187L/E204Q/K202T/N87E/Q94N/R155S/R180L/S121R/S35A/V306I/V36M/Y140S/Y91S); test: biochemical; assay type: binding
HLA B*2705 = HLA B*2705 (Homo sapiens, UniProt P01889, D138H/D201E/E176V/E204Q/G107R/H137Y/K202T/N104T/N87E/Q56L/Q94K/R106L/R155S/R180L/S101D/S121N/S48T/Y140D/Y33H/Y91C); assay type: binding; conditions: positional scanning combinatorial 9-mer library; normalized to 1.0 for the best residue at each position
HLA B*3501 = HLA B*3501 (Homo sapiens, UniProt P01889, A329T/A93T/A95T/C349S/D201E/D98Y/E176V/E187L/E204Q/E69T/I218V/K202T/L119I/Q94N/R155S/R180L/S121R/S35A/S48A/T118I/V127L/V306I/V36M/Y140S/Y91F); assay type: binding
HLA B*5101 = HLA B*5101 (Homo sapiens, UniProt P01889, A329T/A93T/A95T/C349S/D138N/D201E/D98Y/E187L/E204Q/E69T/G107R/I218V/K202T/L105A/L119W/N104I/Q94N/R106L/R155S/R180L/S101N/S121T/S35A/S48A/V306I/V36M/Y195H/Y91F); assay type: binding
HLA B*5301 = HLA B*5301 (Homo sapiens, UniProt P01889, A329T/A93T/A95T/C349S/D201E/D98Y/E176V/E187L/E204Q/E69T/G107R/I218V/K202T/L105A/L119I/N104I/Q94N/R106L/R155S/R180L/S101N/S121R/S35A/S48A/T118I/V127L/V306I/V36M/Y140S/Y91F); assay type: binding
HLA B*5401 = HLA B*5401 (Homo sapiens, UniProt P01889, A329T/C349S/D138N/D201E/E176V/E187T/E204Q/E69G/I76V/K202T/L119W/R155S/R180L/S121T/S35A/S48A/V127L/V306I/V36M/Y140L); assay type: binding
HLA B*5801 = HLA B*5801 (Homo sapiens, UniProt P01889, A329T/C349S/D201E/D98Y/E176V/E187L/E204Q/E69T/G107R/I218V/I90N/K202T/L105A/L119I/N104I/N87E/Q89R/Q94S/R106L/R155S/R180L/R86G/S101N/S121R/S35A/S48A/T118I/V127L/V306I/V36M/Y140S/Y91M); assay type: binding
HLA B*5802 = HLA B*5802 (Homo sapiens, UniProt P01889, A329T/C349S/D201E/D98Y/E176V/E187L/E204Q/E69T/G107R/I218V/I90N/K202T/L105A/N104I/N87E/Q89R/Q94S/R106L/R155S/R180L/R86G/S101N/S121W/S35A/S48A/V127L/V306I/V36M/Y140S/Y91M); assay type: binding
H-2 D^b = H-2 D^b (Mus musculus, UniProt P01899); assay type: binding
H-2 D^d = H-2 D^d (Mus musculus, UniProt P01900); assay type: binding
H-2 K^k = H-2 K^k (Mus musculus, UniProt P04223); assay type: binding
HLA A*0201 = HLA A*0201 (Homo sapiens, UniProt P04439, D140Y/D185E/D98H/E176V/E277Q/G131W/G231S/I119V/I121R/I166T/I218V/L300P/L318F/N151K/N90K/P208A/P217A/Q86G/Q94H/R138H/R169H/T345S); conditions: positional scanning combinatorial 9-mer library; normalized to 1.0 for the best residue at each position

Sequence of H-2 D^d (P01900 whole entry, looked up): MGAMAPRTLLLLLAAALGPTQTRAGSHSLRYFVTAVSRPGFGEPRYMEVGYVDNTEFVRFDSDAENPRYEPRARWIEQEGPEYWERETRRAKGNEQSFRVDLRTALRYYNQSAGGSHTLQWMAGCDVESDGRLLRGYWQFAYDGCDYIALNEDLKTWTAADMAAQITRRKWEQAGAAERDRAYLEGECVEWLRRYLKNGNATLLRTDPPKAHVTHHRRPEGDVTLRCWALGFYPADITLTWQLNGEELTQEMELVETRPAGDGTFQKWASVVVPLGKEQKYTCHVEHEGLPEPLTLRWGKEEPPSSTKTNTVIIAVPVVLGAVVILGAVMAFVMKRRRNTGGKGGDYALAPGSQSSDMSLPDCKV
Sequence of H-2 D^b (P01887 21-119): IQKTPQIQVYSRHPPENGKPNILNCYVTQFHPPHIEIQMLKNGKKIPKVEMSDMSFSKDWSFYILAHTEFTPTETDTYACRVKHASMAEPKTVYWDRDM
Sequence of H-2 D^b (P01899 25-362): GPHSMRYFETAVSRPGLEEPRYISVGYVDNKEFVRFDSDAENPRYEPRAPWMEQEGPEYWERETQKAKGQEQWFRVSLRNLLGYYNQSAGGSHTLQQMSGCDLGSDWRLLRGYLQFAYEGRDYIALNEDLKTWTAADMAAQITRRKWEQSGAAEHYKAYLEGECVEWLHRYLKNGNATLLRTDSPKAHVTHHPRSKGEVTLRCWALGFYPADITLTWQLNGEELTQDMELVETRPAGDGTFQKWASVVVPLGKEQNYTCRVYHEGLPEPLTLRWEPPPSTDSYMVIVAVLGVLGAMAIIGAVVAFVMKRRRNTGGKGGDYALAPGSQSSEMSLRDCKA
Sequence of H-2 K^k (P01887 21-119): as the sequence (P01887 21-119) above
Sequence of H-2 K^k (P04223 22-369): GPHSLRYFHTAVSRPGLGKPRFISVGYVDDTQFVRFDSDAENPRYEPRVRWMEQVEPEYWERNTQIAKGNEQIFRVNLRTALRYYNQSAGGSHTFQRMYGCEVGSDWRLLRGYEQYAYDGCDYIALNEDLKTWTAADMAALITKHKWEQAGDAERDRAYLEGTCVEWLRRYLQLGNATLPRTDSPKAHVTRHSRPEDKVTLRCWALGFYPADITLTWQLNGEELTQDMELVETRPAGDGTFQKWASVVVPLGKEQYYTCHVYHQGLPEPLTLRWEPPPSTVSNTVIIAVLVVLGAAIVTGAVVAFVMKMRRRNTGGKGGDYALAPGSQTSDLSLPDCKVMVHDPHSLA

Row | Sequence | Normalized average relative binding affinity (ARB), HLA A*3001 (HLA A*3001) | Normalized average relative binding affinity (ARB), HLA A*3201 (HLA A*3201) | Normalized average relative binding affinity (ARB), HLA A*6802 (HLA A*6802) | Normalized average relative binding affinity (ARB), HLA B*0702 (HLA B*0702) | Normalized average relative binding affinity (ARB), HLA B*0801 (HLA B*0801) | Normalized average relative binding affinity (ARB), HLA B*1501 (HLA B*1501) | Normalized average relative binding affinity (ARB), HLA B*1503 (HLA B*1503) | Normalized average relative binding affinity (ARB), HLA B*2705 (HLA B*2705) | Normalized average relative binding affinity (ARB), HLA B*3501 (HLA B*3501) | Normalized average relative binding affinity (ARB), HLA B*5101 (HLA B*5101) | Normalized average relative binding affinity (ARB), HLA B*5301 (HLA B*5301) | Normalized average relative binding affinity (ARB), HLA B*5401 (HLA B*5401) | Normalized average relative binding affinity (ARB), HLA B*5801 (HLA B*5801) | Normalized average relative binding affinity (ARB), HLA B*5802 (HLA B*5802) | Normalized average relative binding affinity (ARB), H-2 Db (H-2 D^b) | Normalized average relative binding affinity (ARB), H-2 Dd (H-2 D^d) | Normalized average relative binding affinity (ARB), H-2 Kk (H-2 K^k) | Normalized average relative binding affinity (ARB), HLA A*0201 (HLA A*0201)
1 | XXGXXXXXX [3064.0046] | 0.0022 | 0.20 | 0.061 | 0.052 | 0.086 | 0.14 | 0.063 | 0.17 | 0.068 | 0.078 | 0.046 | 0.025 | 0.12 | 0.17 | 0.13 | 0.0040 | 0.19 | 0.098
2 | XXCXXXXXX [3064.0042] | 0.0048 | 0.32 | 0.071 | 0.047 | 0.020 | 0.35 | 0.048 | 0.14 | 0.074 | 0.24 | 0.0065 | 0.015 | 0.11 | 0.37 | 0.098 | 0.0028 | 0.15 | 0.22
3 | XQXXXXXXX [3064.0034] | 0.33 | 0.32 | 0.0081 | 0.011 | 0.13 | 1.0 | 1.0 | 0.016 | 0.039 | 0.11 | 0.047 | 0.0034 | 0.024 | 0.21 | 1.0 | 0.015 | 0.053 | 0.14
